One molecule from patent US6358921B1, “Antimicrobial peptide compositions and method” (priority 1996, dated 2002) can be followed below.

One assay has as its system C. Albicans. Format: cell-based, Candida albicans. Put shortly:
(§1)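 Liquid-broth microdilution: overnight LB cultures diluted and added to serial peptide dilutions at final 5×10^5 CFU/mL, incubated overnight at 37 °C. MIC is the lowest concentration inhibiting growth; C. albicans a clinical isolate, S. epidermidis clinical, C. xerosis environmental.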

Another assay deals with E. coli UB1005. The format is cell-based, Escherichia coli. The gist of the method:
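Growth inhibition was scored after overnight culture at 37 °C in LB with peptide serial dilutions (inoculum 5×10^5 CFU/mL); MICs were the lowest inhibitory concentrations. Test strains were E. coli UB1005 (wild type), C. xerosis (environmental), and C. albicans and S. epidermidis (clinical isolates).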

For the next assay, the system named is Acholeplasma laidlawii. The format is cell-based. From the text:
According to another feature of the invention, GS14, which is apparently an unlikely antibacterial agent, is useful against mycoplasma infection. […] One use of such a compound is inclusion in tissue culture media, where mycoplasma contamination can pose serious problems in industrial applications of cell culture. […] Such concentrations can be determined according to standard methods known in the art.

Another assay deals with E. coli SC9251. Description: MIC, liquid-broth microtitre dilution. The settings on record: unit from Table 10. Format: cell-based, Escherichia coli. From the text:
(§2) The following bacterial strains were utilized: Escherichia coli UB1005 (wt) and its antibiotic supersusceptible derivative DC2 (Clark, 1984); Excherichia coli SC9251 and its polymixin B rasistant mutant pmrA SC9252 (Peterson, et al., 1987) Pseudomonas aeruginosa H187 (wt) (Angus, et al., 1987) and its antibiotic-sensitive derivative H188 (Zimmerman, W, Antimicrob. Agents Chemother. 18: 94-100, 1980); methicillin sensitive Staphylococcus aureus K147 (Kreiswirth, et al., 1983); Staphylococcus aureus SAP0017, a methicillin resistant clinical isolate from Dr. A. Chow (University of British Columia); Bacillus subtilis, an environmental wt lab strain. Enterococcus faecalis are ATCC 29212 cells and Staphylococcus epidermidis was a clinical isolate from Dr. D. Speert (University of British Columbia). Antifungal activity was tested using a clinical lab isolate of Candida albicans. Salmonella typhinurium C57 and C610 (Fields, P.I., et al., Science 243: 1059-1062 (1989) Corynebacterium xerosis was an environmental isolate (University of British Columbia).
(§3) It is now apparent that agar-based assays severely underestimate antifungal activity as well as activity against gram negative microorganisms (Kondejewski, et al., 1996). Consequently, in the studies reported herein, a liquid-broth method was used to measure the antibiotic properties of the peptides. […] Briefly, cells were grown overnight at 37° C. in LB and diluted in the same medium. Serial dilutions of antibiotics were added to the microtitre plates in a volume of 100 μL followed by 10 μL of bacteria to give a final inoculum of 5×10^5 CFU/mL. Plates were incubated at 37° C. overnight and MICs determined as the lowest antibiotic concentration that inhibited growth.

Another assay has as its system E. coli SC9252. Description: MIC, liquid-broth microtitre dilution. Format: cell-based, Escherichia coli. The settings on record: unit from Table 10.
Source text: as §2, §3

A further assay has as its system P. aeruginosa H187. Format: cell-based, Pseudomonas aeruginosa. The gist of the method: (§4)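 Minimum inhibitory concentrations come from a broth rather than agar assay, using LB medium, a final inoculum of 5×10^5 CFU/mL and overnight incubation at 37 °C. Values are in μg/ml.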
Another assay concerns S. typhinurium C587. The format is cell-based, Salmonella typhinurium. Put shortly: (§5)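 Antimicrobial activity is measured by a liquid-broth assay in LB at 37 °C overnight, starting from 5×10^5 CFU/mL. Values are minimal inhibitory concentrations, i.e. the lowest concentration that stops growth.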
Another assay has as its system S. typhinurium C610. The format is cell-based, Salmonella typhinurium. Put shortly:
as §5

For a further assay, the system named is P. aeruginosa H188. Format: cell-based, Pseudomonas aeruginosa. Put shortly:
as §5

The test system of the next assay is S. epidermidis. Format: cell-based, Staphylococcus epidermidis. The gist of the method:
as §1

For another assay, the system named is E. faecalis. Format: cell-based, Enterococcus faecalis. The gist of the method:
as §5

In a further assay the test system is C. xeroses. The format is cell-based, Corynebacterium xerosis. Put shortly: as §1
The subject of another assay is E. coli DC2. The format is cell-based, Escherichia coli. Put shortly: as §4
The nature of assay [1]: Displacement of dansyl-polymyxin from LPS. Format: binding, P. aeruginosa. The settings on record: read-out: LPS binding affinity: peptide concentration to displace 50% of dansyl-polymyxin B from LPS; Tables 1, 4, 7. Put shortly: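 Peptides titrated into 3 μg/mL P. aeruginosa LPS with 2.5 μM dansyl-polymyxin (~90% site saturation) in 5 mM sodium HEPES, pH 7.0; fluorescence decrease recorded. I50 (50% probe displacement) taken from the x-intercept of a double-reciprocal plot of percent inhibition versus inhibitor concentration.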

Assay [2] has as its system gram positive microorganisms. The format is cell-based.
Source text: as §2, §3
The results from antimicrobial and hemolytic assays are combined to provide a “Therapeutic Index” (TI) for each peptide with respect to individual microorganisms. As reported herein, the TI is calculated as the hemolytic activity divided by the antimicrobial activity. The TI thus is a measure of specificity of the particular peptide for microbial membranes as opposed to human blood cell membranes. In the present studies, antimicrobial activities are reported as minimum inhibitory concentrations (MIC)—the lowest concentration of peptide (μg/ml) found to inhibit growth of the particular microbe. Hemolytic activity is reported as the concentration of peptide that effected complete lysis of blood cells after four hours. Thus, in the context of the present invention high TI values indicate microbial specificity and relative lack of toxicity.

The test system of the next assay is B. subtilis. The format is cell-based, Bacillus subtilis. Put shortly: as §1
A further assay relates to S. aureus K147. Format: cell-based, Staphylococcus aureus. The gist of the method:
as §4

The test system of another assay is S. aureus SAP0017. The format is cell-based, Staphylococcus aureus. Put shortly: as §4

Each structure is given as a SMILES string. pIC50: −log10 of the molar value.

Turning to `CC(C)C[C@@H]1NC(=O)[C@H](CCCCN)NC(=O)[C@H](C(C)C)NC(=O)[C@@H]2CCCN2C(=O)[C@@H](Cc2ccc(O)cc2)NC(=O)[C@H](CC(C)C)NC(=O)[C@H](CCCCN)NC(=O)[C@H](C(C)C)NC(=O)[C@H](CCCCN)NC(=O)[C@H](CC(C)C)NC(=O)[C@@H]2CCCN2C(=O)[C@@H](Cc2ccc(O)cc2)NC(=O)[C@H](C(C)C)NC(=O)[C@H](CCCCN)NC1=O` [GS14], the “Minimum Inhibitory Concentration (activity)” value in the assay on C. Albicans is 150 µg/mL; in the assay with E. coli UB1005 (UB1005), more than 200 µg/mL; in the assay with P. aeruginosa H187 (H187), more than 200 µg/mL; in the assay with S. typhinurium C587, more than 200 µg/mL; in the assay on S. typhinurium C610 it was more than 200 µg/mL; with P. aeruginosa H188 (H188), more than 200 µg/mL. For the same molecule, the “Minimum Inhibitory Concentration (activity)” value with S. epidermidis is 200 µg/mL; in the assay on E. faecalis it was 1.5 µg/mL; in the assay with C. xeroses it was 9 µg/mL; in the assay on E. coli DC2 (DC2), more than 200 µg/mL; with B. subtilis, more than 200 µg/mL; in the assay with S. aureus K147 it was more than 200 µg/mL. The “Minimum Inhibitory Concentration (activity)” value in the assay on S. aureus SAP0017 is more than 200 µg/mL. The “Antibiotic activity (Table 11, ring analogs)” value with E. coli UB1005 (E. coli UB1005, unit from Table 10) came out at 400 μg/ml; in the assay on E. coli SC9251, 400 μg/ml; in the assay on E. coli SC9252, 190 μg/ml; in the assay on P. aeruginosa H187 (P. aeruginosa H187, unit from Table 10), 400 μg/ml; with P. aeruginosa H188 (P. aeruginosa H188, unit from Table 10), 400 μg/ml; in the assay with E. coli DC2 (E. coli DC2, unit from Table 10), 190 μg/ml. The MIC result with Acholeplasma laidlawii is reported as “less than 30 μg/ml”. For the same molecule, the pIC50 in [1] was 5.52. The “MIC against four of the gram positive microorganisms tested” value in [2] is more than 200 µg/mL.
